Results published in patent US20240132445A1, “PHENOL DERIVATIVE AND APPLICATION THEREOF IN MEDICAMENTS” (priority 2021, published 2024).

Tests used:
ICR mice = experiment: animal or person; conditions: for ED50: Mus musculus
Method: (§1) SPF-grade ICR mice, each weighing 18-22 g, half male and half female, were used. A well-established mouse anesthesia model was used to study the general anesthesia effect of the compound of the present invention. The compounds were formulated with solvents of 10% DMSO, 15% solutol (HS15) and 75% saline to the desired concentration, for further use. After adapting to the experimental environment, the experimental animals were fasted with water available for 12 h, and were administered via intravenous injection at an administration volume of 10 mL/kg. Then the anesthesia induction time (the time period from drug administration to disappearance of the righting reflex) and the anesthesia maintenance time (the time period from disappearance of the righting reflex to recovery of the righting reflex) were recorded. Indicators including the median effective dose (ED50), median lethal dose (LD50), therapeutic index (TI, i.e. LD50/ED50), anesthesia induction time, anesthesia maintenance time and maximum tolerated dose were used to evaluate the effect and safety of anesthesia.

in vivo [1] = conditions: both, ICR, mouse, in vivo, iv
Method: as §1

[2] = Pharmacokinetic study in Beagle dogs; format: in vivo; conditions: male, dog, plasma, iv, 0.5 mg/kg
Method: Six male Beagle dogs (6-10 kg) were randomized into 2 groups (n=3): control group 3 and compound 20. The […] were administered via intravenous injection at 0.5 mg/kg (control group 3) and 0.5 mg/kg (compound 20), respectively, with an administration volume of 1 mL/kg and a vehicle of 5% DMSO+10% solutol (HS15)+85% Saline. Blood samples were taken before administration and at 2 min, 5 min, 10 min, 20 min, 30 min, 1 h, 1.5 h, 2 h and 3 h after administration. Plasma samples were taken by centrifugation, and stored in a −80° C. refrigerator until LC-MS analysis to be tested. After sample processing, quantitative analysis of substances in plasma was conducted using LCMS/MS to detect the concentration of prototype compounds in the plasma. The plasma concentration/time curve obtained in this way was used to calculate pharmacokinetic parameters by a validated pharmacokinetic computer program.

Beagle dogs = experiment: Hemodynamic effect study in conscious Beagle dogs (telemetry); format: in vivo; conditions: iv, control group 3 2 mg/kg, compound 20 0.5 and 1 mg/kg, within 1 h, recovery after 1 h
Method: The experiment used an emka PACK 4G telemetry system to detect the effects of intravenous injection of control group 3 and compound 20 on electrocardiogram, blood pressure and body temperature in conscious Beagle dogs, providing reference information for evaluating the safety of clinical use.
Four Beagle dogs were subjected to crossover administration, with a vehicle control (5% DMSO+10% solutol+85% Saline), control group 3 (2 mg/kg), compound 20 (0.5 mg/kg) and compound 20 (1 mg/kg) for each intravenous injection, with an administration volume of 2 mL/kg. Observations were respectively conducted before administration and within 1 h after administration on the day of administration. Anal temperature was measured before administration and at 30 min, 1 h, 2 h and 3 h after administration during each administration period; and electrocardiogram parameters were continuously collected from 0.5 h before administration to 3 h after administration during each administration period. Blood pressure was collected at 15 min after collection was started, and was collected at 2 min, 5 min, 10 min, 20 min, 30 min, 1 h, 2 h and 3 h after administration. The electrocardiogram, blood pressure data, body temperature, and clinical observation results on the day of administration at various time points including before administration (at 30 min after collection was started) and at 2 min, 5 min, 10 min, 20 min, 30 min, 1 h, 2 h and 3 h after administration were analysed and evaluated.

[3] = Pharmacokinetic study in rats; format: in vivo, SD rats; conditions: male, Sprague-Dawley, rat, plasma, iv, 1 mg/kg
Method: Twelve male SD rats (200-300 g) were randomized into 2 groups (n=6): control group 3 and compound 20. The rats were administered via intravenous injection at 1 mg/kg (control group 3) and 1 mg/kg (compound 20), respectively, with an administration volume of 5 mL/kg and a vehicle of 5% DMSO+10% solutol (HS15)+85% Saline. Blood samples were taken before administration and at 2 min, 4 min, 8 min, 12 min, 15 min, 30 min, 1 h, 1.5 h and 2 h after administration. Plasma samples were taken by centrifugation, and stored in a −80° C. refrigerator until LC-MS analysis to be tested. After sample processing, quantitative analysis of substances in plasma was conducted using LCMS/MS to detect the concentration of prototype compounds in the plasma. The plasma concentration/time curve obtained in this way was used to calculate pharmacokinetic parameters by a validated pharmacokinetic computer program.

SD rats = experiment: animal or person; format: in vivo
Method: (§2) SD rats, half male and half female, were fasted with water available for 12 h, and were administered via intravenous injection at an administration volume of 10 mL/kg. Then the anesthesia induction time (the time period from drug administration to disappearance of the righting reflex), the anesthesia maintenance time (the time period from disappearance of the righting reflex to recovery of the righting reflex and revival) and the anesthesia recovery time (the time period from revival to complete recovery) were recorded. Indicators including the median effective dose (ED50), median lethal dose (LD50), therapeutic index (TI, i.e. LD50/ED50), anesthesia induction time, anesthesia maintenance time and maximum tolerated dose were used to evaluate the effect and safety of anesthesia.

in vivo [4] = format: in vivo, rats; conditions: both sexes, Sprague-Dawley, rat, in vivo, iv
Method: as §2

[5] = mice, iv, administration to disappearance of righting reflex
[6] = mice, iv, disappearance to recovery of righting reflex

SMILES | ED50 (ICR mice; iv) [mg/kg] | TI (ICR mice; mice, LD50/ED50) | Anesthesia induction time (ICR mice; [5]) [s] | Anesthesia maintenance time (ICR mice; [6]) [s] | LD50 (in vivo [1]) [mg/kg] | MTD (in vivo [1]) [mg/kg] | further results
CCS(=O)(=O)[C@H](C)c1cccc([C@@H](C)C2CC2)c1O [Compound 21, 2-((S)-1-cyclopropylethyl)-6-((R)-1-(ethylsulfonyl)ethyl)phenol] | 2.5 | 2.4 | 2 | 354 | 6 | 3.5 | –
CC(C)c1cccc([C@H](C)C2CC2)c1O [Control group 3, ciprofol, reference compound] | 1.2 | – | – | – | 6 | 3.1 | AUC(0-t) [2]: 145 ng·h/mL; half-life [2]: 37.8 min; change in heart rate after administration (Beagle dogs): slow down in heart rate; Anesthesia induction time (ICR mice; mouse, in vivo): 2 s; Anesthesia maintenance time (ICR mice; mouse, in vivo): 521 s; TI (ICR mice; mouse, in vivo): 5; AUC(0-t) [3]: 142 ng·h/mL; half-life [3]: 50.6 min; ED50 (SD rats; Rattus norvegicus, iv): 1.1 mg/kg; Anesthesia induction time (SD rats; rat, in vivo): 34 s; Anesthesia maintenance time (SD rats; rat, in vivo): 409 s; TI (SD rats; rat, in vivo): 5.1; LD50 (in vivo [4]): 5.6 mg/kg; MTD (in vivo [4]): 4 mg/kg
CC(C)c1cccc(C(C)C)c1O [Control group 1, propofol, reference compound] | 12 | – | – | – | 31 | – | Anesthesia induction time (ICR mice; mouse, in vivo): 19 s; Anesthesia maintenance time (ICR mice; mouse, in vivo): 586 s; MTD (ICR mice; mouse, in vivo, iv): 20 mg/kg
CC(c1cccc(C(C)[S+](C)[O-])c1O)C1CC1 (stereo not shown) [Compound 5, 2-(1-cyclopropylethyl)-6-(1-(methylsulfinyl)ethyl)phenol] | 6 | 1.7 | 2 | 1638 | 10 | 8 | –
CC(C)c1cccc(C(C)C2CC2)c1O (stereo not shown) [Control group 2, ciprofol, reference compound] | 3.5 | – | – | – | 17 | 9 | Anesthesia induction time (ICR mice; mouse, in vivo): 2 s; Anesthesia maintenance time (ICR mice; mouse, in vivo): 534 s; TI (ICR mice; mouse, in vivo): 4.9
CCS(=O)(=O)C(C)c1cccc(C(C)C2CC2)c1O (stereo not shown) [Compound 11, 2-(1-cyclopropylethyl)-6-(1-(ethylsulfonyl)ethyl)phenol] | 2 | 5.5 | 22 | 560 | 11 | 6 | –
CCS(=O)(=O)[C@@H](C)c1cccc([C@@H](C)C2CC2)c1O [Compound 22, 2-((S)-1-cyclopropylethyl)-6-((S)-1-(ethylsulfonyl)ethyl)phenol] | 5 | 3.6 | 2 | 384 | 18 | 9 | –
CC(c1cccc(C(C)S(C)(=O)=O)c1O)C1CC1 (stereo not shown) [Compound 4, 2-(1-cyclopropylethyl)-6-(1-(methylsulfonyl)ethyl)phenol] | 2 | 5.0 | 2 | 356 | 10 | 4 | –
CCS(=O)(=O)[C@H](C)c1cccc([C@H](C)C2CC2)c1O [Compound 23, 2-((R)-1-cyclopropylethyl)-6-((R)-1-(ethylsulfonyl)ethyl)phenol] | 7 | 2 | 2 | 294 | 14 | 10 | –
CC(C)c1cccc(C(C)[S+](C)[O-])c1O (stereo not shown) [Compound 2, 2-isopropyl-6-(1-(methylsulfinyl)ethyl)phenol] | 6 | 3.8 | 2 | 690 | 17 | 10 | –
CC(c1cccc(C(C)S(=O)(=O)C(C)C)c1O)C1CC1 (stereo not shown) [Compound 6, 2-(1-cyclopropylethyl)-6-(1-(isopropylsulfonyl)ethyl)phenol] | 11 | 3.1 | 5 | 579 | 34 | 22 | –
CC(C)c1cccc(C(C)S(C)(=O)=O)c1O (stereo not shown) [Compound 1, 2-isopropyl-6-(1-(methylsulfonyl)ethyl)phenol] | 8 | 4.4 | 60 | 255 | 35 | 24 | –
CCC(c1cccc(C(C)C2CC2)c1O)S(C)(=O)=O (stereo not shown) [Compound 14, 2-(1-cyclopropylethyl)-6-(1-(methylsulfonyl)propyl)phenol] | 4 | 3.0 | 2 | 499 | 12 | 9 | –
